This note sets out measurements from patent US20050054582A1, “Para-amino benzoic acids as integrin antagonists” (priority 2001, published 2005).

The structures appear in SMILES notation. Where two headings read alike, the source gives them in different places.

The subject of the test is adhesion of Ramos cells to VCAM-1. The test can be described thus: Adhesion of Ramos cells to immobilized VCAM-1 (domains 1-3). The class given is cell-based. The following applies: Homo sapiens. The text has this: In Vitro Assay: Adhesion of Ramos Cells to Immobilized VCAM-1 (Domains 1-3) Preparation of VCAM-1 (Extracellular Domains 1-3)
Complementary DNA (cDNA) encoding 7-domain form of VCAM-1 (GenBank accession #M60335) was obtained using Rapid-Screen™ cDNA library panels (OriGene Technologies, Inc) at Takara Gene Analysis Center (Shiga, Japan). The primers used were 5′-CCAAGGCAGAGTACGCAAAC-3′ (sense) and 5′-TGGCAGGTATTATTAAGGAG-3′ (antisense). PCR amplification of the 3-domain VCAM-1 cDNA was perform using Pfu DNA polymerase (Stratagene) with the following sets of primers: (U-VCAMd1-3) 5′-CCATATGGTACCTGATCAATTTAAAATCGAGACCACCCCAGAA-3′; (L-VCAMdl-3) 5-CCATATAGCAATCCTAGGTCCAGGGGAGATCTCAACAGTAAA-3′. PCR cycle was 94° C. for 45 sec, 55° C. for 45 sec, 72° C. for 2 min, repeating 15 cycles. After the purification of the PCR product, the fragment was digested with KpnI-AvrII. The digested fragment was ligated into pBluescript IISK(−) (Strategene), which was linearized by digesting with KpnI-XhoI. The ligation was followed by transformation to a Dam/Dcm methylase-free E. coli strain SCS110 (Strategene) to create the donor plasmid […]. To direct VCAM-1 molecule into the insect cell secretory pathway, the VCAM-1 coding sequence was fused to signal peptide sequence of honeybee melittin. The resulting melittin-VCAM fusion was placed in correct orientation to the baculovirus polyhedrin promoter. Baculovirus transfer vector containing first 3-domain form VCAM-1 (pH10) was constructed by ligation of 0.9 kb fragment from AvrII/Klenow/BclI digests of pH7 into SalI/Klenow/BamHI digests of pMelBacB (Invitrogen). Recombinant baculovirus was generated by using Bac-N-Blue™ Transfection kit (Invitrogen) according to the manufacture's instruction. The recombinant virus was amplified by infection to High-Five™ insect cells for 5-6 days, and virus titer was determined by plaque assay.
High-Five™ insect cells were pelleted in a 225 ml conical tube by centrifugation at 1000 rpm for 5 min. After discarding the supernatant, the pellet was resuspended in 1.5×10^9 pfu (MOI=5) of high-titer virus solution, followed by incubation for 1.5 hours at room temperature. The cells were pelleted again and washed once in fresh Express Five™ serum free medium. The cells were pelleted again and finally, resuspended in 200 ml of fresh Express Five TM medium, transferred to a 1,000 ml shaker flask, and incubated in a shaker at 27° C., 130 rpm, for 48 hours before the culture supernatant was collected. The purification of 3-domain form of VCAM-1 from the culture supernatant was performed by one-step anion exchange chromatography. Protein concentration was determined by using Coomassie protein assay reagent (Pierce) according to the manufacture's instruction.
Preparation of VCAM-1 Coated Microtiter Plates
Recombinant human VCAM-1 (extracellular domains 1-3) was dissolved at 1.0 μg/ml in PBS. Each well of the microtiter plates (Nalge Nunc International, Fluoronunc Cert, 437958) was coated with 100 μl of substrate or for background control with buffer alone for 15 hours at 4 C. After discarding the substrate solution, the wells were blocked using 150 μl per well of block solution (Kirkegaard Perry Laboratories, 50-61-01) for 90 minutes. The plate was washed with wash buffer containing 24 mM Tris-HCl (pH 7.4), 137 mM NaCl, […] and 2 mM MnCl2 just before addition of the assay.
In Vitro Assay using Ramos Cells
Preparation of Fluorescence Labeled Ramos Cells:
Ramos cells (American Type Culture Collection, Clone CRL-1596) were cultured in RPMI 1640 medium (Nikken Bio Medical Laboratory, CM1101) supplemented with 10% fetal bovine serum (Hyclone, A-1119-L), 100 U/ml penicilin (Gibco BRL, 15140-122) and 100 μg/ml streptomycin (Gibco BRL, 15140-122) in a humidified incubator at 37° C. with 5% CO2. […]

For the compound `CCN1CCCC1CN(CC(=O)Nc1ccc(C(=O)O)cc1)C(=O)Cc1ccc(NC(=O)Nc2ccccc2C)cc1` (centres unmarked) [Example 59, 4-[(N-[(1-ethyl-2-pyrrolidinyl)methyl]-N-{[4-({[(2-methylphenyl)amino]-carbonyl}amino)phenyl]acetyl}glycyl)amino]benzoic acid], the concentration for half-maximal inhibition (IC50) (observed IC50 value ranges, Table 4 does not say whether Ramos-VCAM-1 or Jurkat-VCAM-1, read-out: IC50) is < 500 nM.

Regarding `Cc1ccccc1NC(=O)Nc1ccc(CC(=O)N[C@@H](Cc2ccc(Br)cc2)C(=O)Nc2ccc(C(=O)O)cc2)cc1` [Example 90, 4-[(4-bromo-N-{[4-({[(2-methylphenyl)amino]carbonyl}amino)phenyl]-acetyl}-L-phenylalanyl)amino]benzoic acid], under “Ramos”, the 50% inhibitory concentration (IC50) was < 500 nM.

For the compound `Cc1ccccc1NC(=O)Nc1ccc(CC(=O)N[C@@H](Cc2cnc[nH]2)C(=O)Nc2ccc(C(=O)O)cc2)cc1` [Example 47, 4-[(N-{[4-({[(2-methylphenyl)amino]carbonyl}amino)phenyl]acetyl}-L-histidyl)amino]benzoic acid], under “Ramos”, the IC50 was < 500 nM.

As for `Cc1ccccc1NC(=O)Nc1ccc(CC(=O)N(CC(=O)Nc2ccc(C(=O)O)cc2)CC2CCNCC2)cc1` [Example 62, 4-{[N-{[4-({[(2-methylphenyl)amino]carbonyl}amino)phenyl]acetyl}-N-(4-piperidinylmethyl)glycyl]amino}benzoic acid], the IC50 (Ramos) was < 500 nM.

With `Cc1ccccc1NC(=O)Nc1ccc(CC(=O)N[C@@H](Cc2ccccc2)C(=O)Nc2ccc(C(=O)O)cc2)cc1` [Example 88, 4-[(N-{[4-({[(2-methylphenyl)amino]carbonyl}amino)phenyl]acetyl}-L-phenylalanyl)amino]benzoic acid], the IC50 (Ramos) was < 500 nM.

Regarding `Cc1ccccc1NC(=O)Nc1ccc(CC(=O)N(CC(=O)Nc2ccc(C(=O)O)cc2)Cc2cccnc2)cc1` [Example 69, 4-{[N-{[4-({[(2-methylphenyl)amino]carbonyl}amino)phenyl]acetyl}-N-(3-pyridinylmethyl)glycyl]amino}benzoic acid], the IC50 (Ramos) is < 500 nM.

For the compound `CCCN(CC(=O)Nc1ccc(C(=O)O)cc1)C(=O)Cc1ccc(NC(=O)Nc2ccccc2C)cc1` [Example 65, 4-[(N-{[4-({[(2-methylphenyl)amino]carbonyl}amino)phenyl]acetyl}-N-propylglycyl)amino]benzoic acid], the IC50 (Ramos) is < 500 nM.

As for `Cc1ccccc1NC(=O)Nc1ccc(CC(=O)N(CC(=O)Nc2ccc(C(=O)O)cc2)CC(C)(C)CN)cc1` [Example 63, 4-[(N-(3-amino-2,2-dimethylpropyl)-N-{[4-({[(2-methylphenyl)amino]-carbonyl}amino)phenyl]acetyl}glycyl)amino]benzoic acid], the IC50 (Ramos) was < 500 nM.

For `O=C(Cc1ccc2nc(Nc3ccccc3)oc2c1)N[C@@H](Cc1ccc(Br)cc1)C(=O)Nc1ccc(C(=O)O)cc1` [Example 91], where the note is “Ramos”, the IC50 was in the range of 500 to 2000 nM.

Consider `Cc1ccccc1NC(=O)Nc1ccc(CC(=O)N(CCCN2CCCC2=O)CC(=O)Nc2ccc(C(=O)O)cc2)cc1` [Example 66, 4-({N-{[4-({[(2-methylphenyl)amino]carbonyl}amino)phenyl]acetyl}-N-[3-(2-oxo-1-pyrrolidinyl)propyl]glycyl}amino)benzoic acid], for which the 50% inhibitory concentration (IC50) (Ramos) was < 500 nM.

As for `Cc1ccccc1NC(=O)Nc1ccc(CC(=O)N(CCCCN)CC(=O)Nc2ccc(C(=O)O)cc2)cc1` [Example 57, 4-[(N-(4-aminobutyl)-N-{[4-({[(2-methylphenyl)amino]carbonyl}amino)-phenyl]acetyl}glycyl)amino]benzoic acid], the half-maximal inhibitory concentration (IC50) (Ramos) was < 500 nM.

For `Cc1ccccc1NC(=O)Nc1ccc(CC(=O)N(CC(=O)Nc2ccc(C(=O)O)cc2)Cc2ccncc2)cc1` [Example 71, 4-{[N-{[4-({[(2-methylphenyl)amino]carbonyl}amino)phenyl]acetyl}-N-(4-yridinylmethyl)glycyl]amino}benzoic acid], the IC50 (Ramos) was < 500 nM.

For the compound `Cc1ccccc1NC(=O)Nc1ccc(CC(=O)N(CCCN(C)C)CC(=O)Nc2ccc(C(=O)O)cc2)cc1` [Example 56, 4-[(N-[3-(dimethylamino)propyl]-N-{[4-({[(2-methylphenyl)amino]carbonyl}amino)phenyl]acetyl}glycyl)amino]benzoic acid], the half-maximal inhibitory concentration (IC50) (Ramos) was < 500 nM.

In the case of `COc1cccc(CCN(CC(=O)Nc2ccc(C(=O)O)cc2)C(=O)Cc2ccc(NC(=O)Nc3ccccc3C)cc2)c1` [Example 85, 4-[(N-[2-(3-methoxyphenyl)ethyl]-N-{[4-({[(2-methylphenyl)amino]-carbonyl}amino)phenyl]acetyl}glycyl)amino]benzoic acid], the IC50 (Ramos) was < 500 nM.

With `Cc1ccccc1NC(=O)Nc1ccc(CC(=O)N(CCc2ccccn2)CC(=O)Nc2ccc(C(=O)O)cc2)cc1` [Example 73, 4-({N-{[4-({[(2-methylphenyl)amino]carbonyl}amino)phenyl]acetyl}-N-[2-(2-pyridinyl)ethyl]glycyl}amino)benzoic acid], the IC50 (Ramos) is < 500 nM.

In turn, `O=C(CN(Cc1ccccc1)C(=O)Cc1ccc2nc(Nc3ccccc3)oc2c1)Nc1ccc(C(=O)O)cc1` [Example 92] registered an IC50 (Ramos) of 500 to 2000 nM.

Turning to `Cc1ccccc1NC(=O)Nc1ccc(CC(=O)N[C@@H](CC(=O)O)C(=O)Nc2ccc(C(=O)O)cc2)cc1` [Example 42, 4-[(N-{[4-({[(2-methylphenyl)amino]carbonyl}amino)phenyl]acetyl}-L-α-aspartyl)amino]benzoic acid], the IC50 (Ramos) was < 500 nM.

Consider `Cc1ccccc1NC(=O)Nc1ccc(CC(=O)N(CCCN2CCCC2)CC(=O)Nc2ccc(C(=O)O)cc2)cc1` [Example 58, 4-({N-{[4-({[(2-methylphenyl)amino]carbonyl}amino)phenyl]acetyl}-N-[3-(1-pyrrolidinyl)propyl]glycyl}amino)benzoic acid], for which the concentration for half-maximal inhibition (IC50) (Ramos) is < 500 nM.

For the compound `Cc1ccccc1NC(=O)Nc1ccc(CC(=O)N[C@@H](CCCN)C(=O)Nc2ccc(C(=O)O)cc2)cc1` [Example 41, 4-[(N^2-{[4-({[(2-methylphenyl)amino]carbonyl}amino)phenyl]acetyl}-L-ornithyl)amino]benzoic acid], the half-maximal inhibitory concentration (IC50) (Ramos) is < 500 nM.

On to `Cc1ccccc1NC(=O)Nc1ccc(CC(=O)N(CCCN2CCOCC2)CC(=O)Nc2ccc(C(=O)O)cc2)cc1` [Example 68, 4-({N-{[4-({[(2-methylphenyl)amino]carbonyl}amino)phenyl]acetyl}-N-[3-(4-morpholinyl)propyl]glycyl}amino)benzoic acid], for which the half-maximal inhibitory concentration (IC50) (Ramos) is < 500 nM.

On to `COc1cc(CCN(CC(=O)Nc2ccc(C(=O)O)cc2)C(=O)Cc2ccc3nc(Nc4ccccc4)oc3c2)cc(OC)c1` [Example 77, 4-({N-[(2-anilino-1,3-benzoxazol-6-yl)acetyl]-N-[2-(3,5-dimethoxyphenyl)-ethyl]glycyl}amino)benzoic acid], for which the concentration for half-maximal inhibition (IC50) (Ramos) is < 500 nM.

Consider `Cc1ccccc1NC(=O)Nc1ccc(CC(=O)N[C@@H](Cc2c[nH]c3ccccc23)C(=O)Nc2ccc(C(=O)O)cc2)cc1` [Example 43, 4-[(N-{[4-({[(2-methylphenyl)amino]carbonyl}amino)phenyl]acetyl}-L-tryptophyl)amino]benzoic acid], for which the IC50 (Ramos) was < 500 nM.

`Cc1ccccc1NC(=O)Nc1ccc(CC(=O)N(CCc2c[nH]cn2)CC(=O)Nc2ccc(C(=O)O)cc2)cc1` [Example 72, 4-[(N-[2-(1H-imidazol-4-yl)ethyl]-N-{[4-({[(2-methylphenyl)amino]carbonyl}amino)phenyl]acetyl}glycyl)amino]benzoic acid]: the half-inhibitory concentration (IC50) (Ramos) is < 500 nM.
